Results as given in patent US7820197B2, “Percutaneous preparations” (Astellas Pharma Inc., priority 2002, dated 2010).
Like-named read-outs stand apart in the source and are kept apart here.

Legend:
[1] = as compared to control; cited from earlier work
[2] = tested on: dihydrotachysterol-induced calcification (calciphylaxis); conditions: cited from earlier work
[3] = Percutaneous absorption test of 14C-incadronate aqueous solution; type: in vivo, rat; conditions: in 24 hours after the administration
Excerpt: The rat abdominal hair was shaved and a round cell (made of acryl, 20 mm in diameter) was fixed on the skin with a medical adhesive. […] During the test, the rat was fixed dorsally under urethane anesthesia. Bone tissue specimens were burnt in a tissue combustion equipment and the radioactivity was counted by a scintillation counter.

[4] = Solubility properties; type: physicochemical

CC(O)(P(=O)(O)O)P(=O)(O)O [etidronate]
enhancement of penetration effect by decyl methyl sulfoxide [1]: about 6 fold
skin calcium level ([2]; composition of etidronate and penetrating carrier containing decyl methyl sulfoxide): 2.026%
skin calcium level ([2]; etidronate alone dissolved in the penetrating carrier vehicle): 0.067%

O=P([O-])(O)C(NC1CCCCCC1)P(=O)([O-])O.[Na+].[Na+] [incadronate, disodium incadronate]
concentration in the bone tissues [3]: very high concentration in the bone tissues

O=P(O)(O)C(O)(Cc1cnc2ccccn12)P(=O)(O)O [minodronic acid, 1-hydroxy-2-(imidazo[1,2-a]pyridin-3-yl)ethylidenebisphosphonic acid]
solubility in an alkaline solvent ([4]; alkaline solvent): soluble in an alkaline solvent
solubility in an organic solvent ([4]; organic solvent): insoluble even in an organic solvent
solubility in water ([4]; water): practically insoluble in water
